Assay results reported in paper PMC11873239, “A covalent chemical probe for Chikungunya nsP2 cysteine protease with antialphaviral activity and proteome-wide selectivity” (Scientific Reports, 2025).
“And” between values parts separate entries of the source, which are not always exact repeats. Equal values may be shown once.

What was measured:
[1] = test system: CHIKV-nLuc; experiment: microbe, parasite or virus in culture; format: cell-based; conditions: Chikungunya virus, MRC5, 6 h, read-out: EC50 (CHIKV-nLuc replication)
[2] = molecular target: HEK293 cell lysate proteins and CHIKV nsP2 (Homo sapiens, UniProt O14617); format: binding
[3] = molecular target: HEK293 cell lysate proteins and CHIKV nsP2 (Homo sapiens, UniProt O15042); format: binding
[4] = molecular target: HEK293 cell lysate proteins and CHIKV nsP2 (Homo sapiens, UniProt O60524); format: binding
[5] = molecular target: HEK293 cell lysate proteins and CHIKV nsP2 (Homo sapiens, UniProt O60814); format: binding
[6] = molecular target: HEK293 cell lysate proteins and CHIKV nsP2 (Homo sapiens, UniProt O75223); format: binding
[7] = molecular target: HEK293 cell lysate proteins and CHIKV nsP2 (Homo sapiens, UniProt O75342); format: binding
[8] = molecular target: HEK293 cell lysate proteins and CHIKV nsP2 (Homo sapiens, UniProt P04259); format: binding
[9] = molecular target: HEK293 cell lysate proteins and CHIKV nsP2 (Homo sapiens, UniProt P12273); format: binding
[10] = molecular target: HEK293 cell lysate proteins and CHIKV nsP2 (Homo sapiens, UniProt P25311); format: binding
Chain of HEK293 cell lysate proteins and CHIKV nsP2 (Homo sapiens, UniProt P25311) (P25311 21-298): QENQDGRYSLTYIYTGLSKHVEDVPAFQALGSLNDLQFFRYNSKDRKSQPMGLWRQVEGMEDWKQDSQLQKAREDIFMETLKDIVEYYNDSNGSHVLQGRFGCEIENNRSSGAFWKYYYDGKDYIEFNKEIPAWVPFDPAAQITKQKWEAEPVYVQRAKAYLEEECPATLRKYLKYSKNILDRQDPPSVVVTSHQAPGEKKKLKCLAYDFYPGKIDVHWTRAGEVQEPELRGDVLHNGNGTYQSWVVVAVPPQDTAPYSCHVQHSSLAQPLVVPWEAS

[11] = molecular target: HEK293 cell lysate proteins and CHIKV nsP2 (Homo sapiens, UniProt P31151); format: binding
Chain of HEK293 cell lysate proteins and CHIKV nsP2 (Homo sapiens, UniProt P31151) (P31151 whole entry): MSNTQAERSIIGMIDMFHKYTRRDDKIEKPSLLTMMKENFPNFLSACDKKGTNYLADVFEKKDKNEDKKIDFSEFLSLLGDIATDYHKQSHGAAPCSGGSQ

[12] = molecular target: HEK293 cell lysate proteins and CHIKV nsP2 (Homo sapiens, UniProt P32119); format: binding
[13] = molecular target: HEK293 cell lysate proteins and CHIKV nsP2 (Homo sapiens, UniProt P35251); format: binding
[14] = molecular target: HEK293 cell lysate proteins and CHIKV nsP2 (Homo sapiens, UniProt P46821); format: binding
[15] = molecular target: HEK293 cell lysate proteins and CHIKV nsP2 (Homo sapiens, UniProt P60709); format: binding
[16] = molecular target: HEK293 cell lysate proteins and CHIKV nsP2 (Homo sapiens, UniProt P62979); format: binding
[17] = molecular target: HEK293 cell lysate proteins and CHIKV nsP2 (Homo sapiens, UniProt P81605); format: binding
[18] = molecular target: HEK293 cell lysate proteins and CHIKV nsP2 (Homo sapiens, UniProt Q00610); format: binding
[19] = molecular target: HEK293 cell lysate proteins and CHIKV nsP2 (Homo sapiens, UniProt Q01469); format: binding
[20] = molecular target: HEK293 cell lysate proteins and CHIKV nsP2 (Homo sapiens, UniProt Q12872); format: binding
[21] = molecular target: HEK293 cell lysate proteins and CHIKV nsP2 (Homo sapiens, UniProt Q13428); format: binding
Chain of HEK293 cell lysate proteins and CHIKV nsP2 (Homo sapiens, UniProt Q13428) (Q13428 whole entry): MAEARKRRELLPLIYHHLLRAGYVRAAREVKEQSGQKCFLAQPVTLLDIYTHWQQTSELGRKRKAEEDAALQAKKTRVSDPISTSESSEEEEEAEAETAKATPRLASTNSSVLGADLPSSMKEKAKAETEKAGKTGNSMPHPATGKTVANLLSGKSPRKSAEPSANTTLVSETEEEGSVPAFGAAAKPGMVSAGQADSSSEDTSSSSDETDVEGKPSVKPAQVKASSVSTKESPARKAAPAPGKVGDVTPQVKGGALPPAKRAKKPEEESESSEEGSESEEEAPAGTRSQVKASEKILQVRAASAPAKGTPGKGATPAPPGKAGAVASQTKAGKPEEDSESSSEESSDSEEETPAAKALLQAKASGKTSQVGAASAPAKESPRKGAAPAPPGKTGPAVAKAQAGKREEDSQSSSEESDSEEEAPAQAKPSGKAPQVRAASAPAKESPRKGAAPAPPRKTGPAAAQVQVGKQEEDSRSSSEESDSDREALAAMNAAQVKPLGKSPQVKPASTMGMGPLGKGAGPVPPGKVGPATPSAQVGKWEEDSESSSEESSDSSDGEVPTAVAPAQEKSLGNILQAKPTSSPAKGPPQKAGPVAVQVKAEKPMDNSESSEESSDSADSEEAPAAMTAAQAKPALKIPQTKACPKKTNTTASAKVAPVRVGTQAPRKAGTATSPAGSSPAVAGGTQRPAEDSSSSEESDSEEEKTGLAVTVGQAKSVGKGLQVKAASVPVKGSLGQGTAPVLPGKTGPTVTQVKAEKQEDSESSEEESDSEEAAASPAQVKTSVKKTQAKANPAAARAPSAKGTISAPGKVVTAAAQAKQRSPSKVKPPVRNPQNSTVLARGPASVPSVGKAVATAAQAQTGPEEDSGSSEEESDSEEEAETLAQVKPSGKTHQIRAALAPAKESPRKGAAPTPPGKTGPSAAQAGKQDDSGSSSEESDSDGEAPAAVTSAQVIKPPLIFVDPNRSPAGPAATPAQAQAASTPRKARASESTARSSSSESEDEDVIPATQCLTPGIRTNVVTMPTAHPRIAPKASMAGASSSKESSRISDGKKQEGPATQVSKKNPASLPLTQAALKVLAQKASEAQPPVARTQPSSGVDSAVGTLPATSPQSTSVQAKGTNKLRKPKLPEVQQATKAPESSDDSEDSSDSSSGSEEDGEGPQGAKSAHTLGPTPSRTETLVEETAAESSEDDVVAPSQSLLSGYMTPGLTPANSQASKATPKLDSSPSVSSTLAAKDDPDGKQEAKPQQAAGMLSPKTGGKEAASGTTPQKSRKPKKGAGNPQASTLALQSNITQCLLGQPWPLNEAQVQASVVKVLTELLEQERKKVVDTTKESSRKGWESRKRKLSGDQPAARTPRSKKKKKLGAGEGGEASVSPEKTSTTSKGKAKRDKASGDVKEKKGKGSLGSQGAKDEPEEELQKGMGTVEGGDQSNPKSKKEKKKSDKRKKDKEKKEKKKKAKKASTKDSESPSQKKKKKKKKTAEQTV

[22] = molecular target: HEK293 cell lysate proteins and CHIKV nsP2 (Homo sapiens, UniProt Q14151); format: binding
Chain of HEK293 cell lysate proteins and CHIKV nsP2 (Homo sapiens, UniProt Q14151) (Q14151 whole entry): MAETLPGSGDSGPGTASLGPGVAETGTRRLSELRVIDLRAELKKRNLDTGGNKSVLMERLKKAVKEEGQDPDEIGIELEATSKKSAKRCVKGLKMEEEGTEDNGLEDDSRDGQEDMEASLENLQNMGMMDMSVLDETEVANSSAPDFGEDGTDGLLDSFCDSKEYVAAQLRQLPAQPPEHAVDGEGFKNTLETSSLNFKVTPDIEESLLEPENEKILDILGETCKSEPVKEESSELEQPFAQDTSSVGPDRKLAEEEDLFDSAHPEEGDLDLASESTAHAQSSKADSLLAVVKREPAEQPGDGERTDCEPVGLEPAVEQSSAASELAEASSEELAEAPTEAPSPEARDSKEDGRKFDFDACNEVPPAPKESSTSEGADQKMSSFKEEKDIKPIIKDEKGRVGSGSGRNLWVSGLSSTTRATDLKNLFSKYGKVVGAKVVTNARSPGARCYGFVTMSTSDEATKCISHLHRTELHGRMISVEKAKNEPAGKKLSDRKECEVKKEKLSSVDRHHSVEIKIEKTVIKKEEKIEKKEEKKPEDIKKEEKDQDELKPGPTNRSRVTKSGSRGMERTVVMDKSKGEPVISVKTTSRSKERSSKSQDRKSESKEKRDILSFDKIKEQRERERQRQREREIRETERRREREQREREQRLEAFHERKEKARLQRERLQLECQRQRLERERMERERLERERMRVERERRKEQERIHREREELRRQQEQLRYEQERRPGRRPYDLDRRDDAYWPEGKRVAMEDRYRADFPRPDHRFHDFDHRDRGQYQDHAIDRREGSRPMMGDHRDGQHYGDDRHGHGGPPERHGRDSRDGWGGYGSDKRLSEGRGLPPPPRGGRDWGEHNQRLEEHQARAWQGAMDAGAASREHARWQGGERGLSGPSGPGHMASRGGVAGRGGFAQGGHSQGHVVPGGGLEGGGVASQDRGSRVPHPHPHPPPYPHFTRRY

[23] = molecular target: HEK293 cell lysate proteins and CHIKV nsP2 (Homo sapiens, UniProt Q14562); format: binding
[24] = molecular target: HEK293 cell lysate proteins and CHIKV nsP2 (Homo sapiens, UniProt Q15517); format: binding
[25] = molecular target: HEK293 cell lysate proteins and CHIKV nsP2 (Homo sapiens, UniProt Q5T749); format: binding
Chain of HEK293 cell lysate proteins and CHIKV nsP2 (Homo sapiens, UniProt Q5T749) (Q5T749 whole entry): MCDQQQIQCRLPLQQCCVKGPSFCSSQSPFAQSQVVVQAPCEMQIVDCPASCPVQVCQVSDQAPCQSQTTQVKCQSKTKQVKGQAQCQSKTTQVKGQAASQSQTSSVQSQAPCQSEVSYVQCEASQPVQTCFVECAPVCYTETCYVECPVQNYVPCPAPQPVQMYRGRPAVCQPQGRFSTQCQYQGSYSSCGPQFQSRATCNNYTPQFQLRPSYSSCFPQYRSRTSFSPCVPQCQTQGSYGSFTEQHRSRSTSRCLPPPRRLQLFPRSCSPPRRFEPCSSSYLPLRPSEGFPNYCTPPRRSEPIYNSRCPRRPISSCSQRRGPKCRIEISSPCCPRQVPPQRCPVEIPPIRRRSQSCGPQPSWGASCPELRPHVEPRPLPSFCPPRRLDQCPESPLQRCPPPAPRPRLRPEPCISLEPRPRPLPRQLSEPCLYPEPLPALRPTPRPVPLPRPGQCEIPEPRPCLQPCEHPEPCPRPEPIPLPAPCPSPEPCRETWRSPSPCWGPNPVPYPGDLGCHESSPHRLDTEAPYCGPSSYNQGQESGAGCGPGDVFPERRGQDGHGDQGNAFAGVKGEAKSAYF

[26] = molecular target: HEK293 cell lysate proteins and CHIKV nsP2 (Homo sapiens, UniProt Q5T750); format: binding
[27] = molecular target: HEK293 cell lysate proteins and CHIKV nsP2 (Homo sapiens, UniProt Q6KC79); format: binding
[28] = molecular target: HEK293 cell lysate proteins and CHIKV nsP2 (Homo sapiens, UniProt Q6ZVX7); format: binding
[29] = molecular target: HEK293 cell lysate proteins and CHIKV nsP2 (Homo sapiens, UniProt Q7L014); format: binding
[30] = molecular target: HEK293 cell lysate proteins and CHIKV nsP2 (Homo sapiens, UniProt Q86UP2); format: binding
[31] = molecular target: HEK293 cell lysate proteins and CHIKV nsP2 (Homo sapiens, UniProt Q8NFC6); format: binding
[32] = molecular target: HEK293 cell lysate proteins and CHIKV nsP2 (Homo sapiens, UniProt Q8NI27); format: binding
Chain of HEK293 cell lysate proteins and CHIKV nsP2 (Homo sapiens, UniProt Q8NI27) (Q8NI27 whole entry): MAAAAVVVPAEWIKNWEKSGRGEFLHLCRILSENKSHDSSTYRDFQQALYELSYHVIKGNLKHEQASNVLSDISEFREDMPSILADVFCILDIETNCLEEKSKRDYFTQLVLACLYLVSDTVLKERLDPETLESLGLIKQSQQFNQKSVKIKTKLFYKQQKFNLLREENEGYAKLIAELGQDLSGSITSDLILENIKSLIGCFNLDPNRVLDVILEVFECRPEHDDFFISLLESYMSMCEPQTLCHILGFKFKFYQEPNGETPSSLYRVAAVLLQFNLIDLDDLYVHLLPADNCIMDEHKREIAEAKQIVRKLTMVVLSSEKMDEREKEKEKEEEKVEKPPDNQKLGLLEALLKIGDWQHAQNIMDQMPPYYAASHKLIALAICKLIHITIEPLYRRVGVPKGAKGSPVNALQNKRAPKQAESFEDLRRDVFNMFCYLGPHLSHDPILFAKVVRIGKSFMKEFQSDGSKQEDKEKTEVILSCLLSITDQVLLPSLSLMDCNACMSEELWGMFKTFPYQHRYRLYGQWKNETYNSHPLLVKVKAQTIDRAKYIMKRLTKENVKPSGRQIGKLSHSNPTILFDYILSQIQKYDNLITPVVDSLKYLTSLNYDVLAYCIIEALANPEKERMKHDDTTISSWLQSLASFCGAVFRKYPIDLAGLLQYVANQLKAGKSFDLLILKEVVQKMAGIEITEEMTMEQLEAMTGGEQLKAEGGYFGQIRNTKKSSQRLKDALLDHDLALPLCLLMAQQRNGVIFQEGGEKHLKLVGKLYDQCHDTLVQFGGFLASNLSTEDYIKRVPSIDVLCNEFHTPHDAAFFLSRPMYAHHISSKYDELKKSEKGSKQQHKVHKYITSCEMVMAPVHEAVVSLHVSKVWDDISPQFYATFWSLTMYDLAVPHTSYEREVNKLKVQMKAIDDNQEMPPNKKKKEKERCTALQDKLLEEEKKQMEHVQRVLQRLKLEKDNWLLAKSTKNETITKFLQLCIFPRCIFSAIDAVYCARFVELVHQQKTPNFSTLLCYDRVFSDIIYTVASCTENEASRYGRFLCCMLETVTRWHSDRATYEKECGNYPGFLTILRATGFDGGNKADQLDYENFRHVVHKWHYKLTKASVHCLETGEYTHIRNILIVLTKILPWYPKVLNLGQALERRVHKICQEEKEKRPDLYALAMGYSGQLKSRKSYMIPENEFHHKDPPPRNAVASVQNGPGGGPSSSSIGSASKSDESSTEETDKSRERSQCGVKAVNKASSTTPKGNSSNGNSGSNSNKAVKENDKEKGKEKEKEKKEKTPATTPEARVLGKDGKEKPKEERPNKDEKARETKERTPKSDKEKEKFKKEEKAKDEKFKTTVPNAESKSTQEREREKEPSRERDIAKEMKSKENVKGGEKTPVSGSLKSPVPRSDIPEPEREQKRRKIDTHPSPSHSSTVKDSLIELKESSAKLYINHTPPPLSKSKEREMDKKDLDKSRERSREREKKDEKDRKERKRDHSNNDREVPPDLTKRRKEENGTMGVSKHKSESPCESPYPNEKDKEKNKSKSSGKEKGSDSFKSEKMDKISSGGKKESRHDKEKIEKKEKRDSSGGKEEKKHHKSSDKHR

[33] = molecular target: HEK293 cell lysate proteins and CHIKV nsP2 (Homo sapiens, UniProt Q9NWH9); format: binding
[34] = molecular target: HEK293 cell lysate proteins and CHIKV nsP2 (Homo sapiens, UniProt Q9UHB7); format: binding
[35] = molecular target: HEK293 cell lysate proteins and CHIKV nsP2 (Homo sapiens, UniProt Q9UKV3); format: binding
[36] = molecular target: HEK293 cell lysate proteins and CHIKV nsP2 (Homo sapiens, UniProt Q9Y520); format: binding

C#CCOc1ccccc1-c1cc(C(=O)NC/C=C/S(C)(=O)=O)on1 [VS, (E)-N-(3-(methylsulfonyl)allyl)−3-(2-(prop-2-yn-1-yloxy)phenyl)isoxazole-5-carboxamide]
EC50 [1]: 33 nM
Log2 fold change [2]: -0.93
Log2 fold change [3]: 0.06
Log2 fold change [4]: -0.75
Log2 fold change [5]: -1.93
Log2 fold change [6]: 0.96
Log2 fold change [7]: 2.14
Log2 fold change [8]: 3.24
Log2 fold change [9]: 1.00
Log2 fold change [10]: 1.43
Log2 fold change [11]: -1.22
Log2 fold change [12]: 2.04
Log2 fold change [13]: 0.30
Log2 fold change [14]: -0.63
Log2 fold change [15]: 1.54
Log2 fold change [16]: 0.71
Log2 fold change [17]: 1.36
Log2 fold change [18]: 3.09
Log2 fold change [19]: 2.38
Log2 fold change [20]: -1.75
Log2 fold change [21]: 1.02 and 1.32
Log2 fold change [22]: 1.50
Log2 fold change [23]: -0.65
Log2 fold change [24]: 1.22
Log2 fold change [25]: 2.53
Log2 fold change [26]: 2.49
Log2 fold change [27]: -0.34
Log2 fold change [28]: 2.74
Log2 fold change [29]: -0.13
Log2 fold change [30]: 0.34
Log2 fold change [31]: 0.23
Log2 fold change [32]: -0.12
Log2 fold change [33]: -0.40
Log2 fold change [34]: -0.42
Log2 fold change [35]: -1.88
Log2 fold change [36]: 0.50
